The record followed here is the PolyMetriX glass transition set.

The structures appear in SMILES notation.

Compound `*C(=O)Nc1ccc(Cc2ccc(NC(=O)c3ccc4c(c3)C(=O)N(c3ccc(/N=N/c5ccc(C)cc5)c(N5C(=O)c6ccc(*)cc6C5=O)c3)C4=O)cc2)cc1` (repeat unit) gave a glass transition temperature of 268.00 °C. `*C(=O)c1ccc(Oc2ccc(-c3ccc(Oc4ccc(C(=O)c5ccc6c(c5)C(=O)N(c5ccc(N7C(=O)c8ccc(*)cc8C7=O)cc5)C6=O)cc4)cc3)cc2)cc1` (repeat unit) came in with a glass transition temperature of 229.00 °C.

In the case of `*C(=O)c1ccc(Oc2ccc(S(=O)(=O)c3ccc(Oc4ccc(C(=O)c5ccc6c(c5)C(=O)N(c5ccc(Cc7ccc(N8C(=O)c9ccc(*)cc9C8=O)cc7)cc5)C6=O)cc4)cc3)cc2)cc1` (repeat unit), the glass transition temperature turned out to be 245.00 °C. Regarding `*C(=O)c1ccc2c(c1)C(=O)N(c1cc(OCCCCCCCC)cc(N3C(=O)c4ccc(*)cc4C3=O)c1)C2=O` (repeat unit), the glass transition temperature is 195.00 °C. In the case of `*C(=O)c1ccc2c(c1)C(=O)N(c1cc(OCCCCCCCCCCCC)cc(N3C(=O)c4ccc(*)cc4C3=O)c1)C2=O` (repeat unit), the glass transition temperature is 182.00 °C.

`*C(=O)c1ccc2c(c1)C(=O)N(c1ccc(CP(=O)(OCC)OCC)c(N3C(=O)c4ccc(*)cc4C3=O)c1)C2=O` (repeat unit) gave a glass transition temperature of 218.00 °C.

Consider `*C(=O)c1ccc2c(c1)C(=O)N(c1ccc(Cl)c(N3C(=O)c4ccc(*)cc4C3=O)c1)C2=O` (repeat unit), for which the glass transition temperature came out at 305.00 °C. For the compound `*C(=O)c1ccc2c(c1)C(=O)N(c1ccc(N3C(=O)c4ccc(*)cc4C3=O)c(S(=O)(=O)[O][Na])c1)C2=O` (repeat unit), the glass transition temperature is 214.00 °C. In turn, `*C(=O)c1ccc2c(c1)C(=O)N(c1ccc(OCCOCCOCCOc3ccc(N4C(=O)c5ccc(*)cc5C4=O)cc3)cc1)C2=O` (repeat unit) came in with a glass transition temperature of 200.00 °C. In turn, `*C(=O)c1ccc2c(c1)C(=O)N(c1ccc(OCCOCCOc3ccc(N4C(=O)c5ccc(*)cc5C4=O)cc3)cc1)C2=O` (repeat unit) gave a glass transition temperature of 235.00 °C. The value for `*C(=O)c1ccc2c(c1)C(=O)N(c1ccc(Oc3c(C)cc(C(c4cc(C)c(Oc5ccc(N6C(=O)c7ccc(*)cc7C6=O)cc5)c(C)c4)c4cccc5ccccc45)cc3C)cc1)C2=O` (repeat unit) was 272.00 °C; that for `*C(=O)c1ccc2c(c1)C(=O)N(c1ccc(Oc3cc4ccccc4cc3Oc3ccc(N4C(=O)c5ccc(*)cc5C4=O)cc3)cc1)C2=O` (repeat unit) was 246.00 °C. The compound `*C(=O)c1ccc2c(c1)C(=O)N(c1ccc(Oc3ccc(C(=O)c4cccc(C(=O)c5ccc(Oc6ccc(N7C(=O)c8ccc(*)cc8C7=O)cc6)cc5)n4)cc3)cc1)C2=O` (repeat unit) gave a glass transition temperature of 314.50 °C. With `*Oc1ccc(S(=O)(=O)c2ccc(Oc3c(C)cc(C(C)(C)c4cc(C)c(*)c(C)c4)cc3C)cc2)cc1` (repeat unit), the glass transition temperature came to 231.30 °C. Turning to `*Oc1ccc(S(=O)(=O)c2ccc(Oc3c(C)cc(C(c4cc(C)c(*)c(C)c4)(C(F)(F)F)C(F)(F)F)cc3C)cc2C(O)(C(F)(F)F)C(F)(F)F)c(C(O)(C(F)(F)F)C(F)(F)F)c1` (repeat unit), the glass transition temperature stood at 196.00 °C. On to `*Oc1ccc(S(=O)(=O)c2ccc(Oc3c(C)cc(C(c4cc(C)c(*)c(C)c4)(C(F)(F)F)C(F)(F)F)cc3C)cc2[Si](C)(C)C)c([Si](C)(C)C)c1` (repeat unit), for which the glass transition temperature was found to be 197.00 °C. With `*Oc1ccc(Sc2ccc(Oc3ccc(-c4ccc(-c5ccc(-c6ccc(*)c(C(F)(F)F)c6)cc5)cc4)cc3C(F)(F)F)cc2)cc1` (repeat unit), the glass transition temperature came to 176.50 °C. The value for `*c1c(C)cc(Cc2cc(C)c(N3C(=O)c4cccc(Oc5c(C)cc(-c6cc(C)c(Oc7cccc8c7C(=O)N(*)C8=O)c(C)c6)cc5C)c4C3=O)c(C)c2)cc1C` (repeat unit) was 289.00 °C; that for `*c1cc(*)cc(-c2nc3ccccc3o2)c1` (repeat unit) was 250.00 °C; that for `*c1cc(CC(=O)OCCCCCCOc2ccc(/N=N/c3ccc(C#N)cc3)cc2)c(*)s1` (repeat unit) was 64.00 °C.

With `*c1cc(CCCCCCOC(=O)COC)c(*)s1` (repeat unit), the glass transition temperature was 37.00 °C. On to `*c1cc(CCCCCCOC(=O)Cc2ccccc2)c(*)s1` (repeat unit), for which the glass transition temperature was determined as 45.00 °C. `*c1cc(CCCCCCO[Si](C)(C)C)c(*)s1` (repeat unit) gave a glass transition temperature of 10.00 °C. For the compound `*c1cc(SCCCCCC)c(*)s1` (repeat unit), the glass transition temperature is 32.00 °C. Consider `*c1cc(SCCCCCCCCCCCC)c(*)s1` (repeat unit), for which the glass transition temperature was found to be 33.00 °C. Compound `*c1ccc(-c2cc(-c3ccc(OCC(CC)CCCC)cc3)cc(-c3ccc(-c4ccc5c(c4)C(CCCCCC)(CCCCCC)c4cc(*)ccc4-5)cc3)c2-c2ccc(OCC(CC)CCCC)cc2)cc1` (repeat unit) registered a glass transition temperature of 110.00 °C. `*c1ccc(-c2cc(CCCCCCCC)c(-c3ccc(-c4ccc(-c5sc(-c6ccc([Si](CCCC)(CCCC)[Si](*)(CCCC)CCCC)s6)cc5CCCCCCCC)s4)s3)s2)s1` (repeat unit) gave a glass transition temperature of -10.00 °C. `*c1ccc(-c2cc3c(ccc4ccccc43)cc2-c2ccc(N(*)c3ccc(C)cc3)cc2)cc1` (repeat unit) showed a glass transition temperature of 126.00 °C. Consider `*c1ccc(-c2ccc(-c3c(-c4ccccc4)nc4ccc(Oc5ccc6nc(-c7ccccc7)c(*)c(-c7ccccc7)c6c5)cc4c3-c3ccccc3)cc2)cc1` (repeat unit), for which the glass transition temperature was found to be 330.00 °C.

On to `*c1ccc(-c2ccc(-c3cc(-c4ccccc4)c4cc(C5(c6ccc7nc(*)cc(-c8ccccc8)c7c6)c6ccccc6-c6ccccc65)ccc4n3)cc2)cc1` (repeat unit), for which the glass transition temperature came out at 380.00 °C.

In turn, `*c1ccc(-c2ccc(-c3cc(-c4ccccc4)c4cc5nc(*)cc(-c6ccccc6)c5cc4n3)cc2)cc1` (repeat unit) yielded a glass transition temperature of 383.00 °C.

The compound `*c1ccc(-c2ccc(-c3ccc(-c4cc(-c5ccccc5)c5cc(-c6ccc7nc(*)cc(-c8ccccc8)c7c6)ccc5n4)cc3)cc2)cc1` (repeat unit) registered a glass transition temperature of 360.00 °C. In turn, `*c1ccc(-c2ccc(-c3ccc(-c4ccc(-c5cc(-c6ccccc6)c6cc(-c7ccc8nc(*)cc(-c9ccccc9)c8c7)ccc6n5)cc4)cc3)cc2)cc1` (repeat unit) returned a glass transition temperature of 355.00 °C. With `*c1ccc(-c2ccc(-c3ccc(-c4ccc(-c5ccc6c(c5)C(=O)N(c5cccc(N7C(=O)c8ccc(*)cc8C7=O)c5)C6=O)cc4)cc3)cc2)cc1` (repeat unit), the glass transition temperature was 237.00 °C. For the compound `*c1ccc(-c2ccc(-c3ccc([Si](*)(CCCC)CCCC)s3)s2)s1` (repeat unit), the glass transition temperature came to 30.00 °C. The compound `*c1ccc(-c2ccc(-c3ccc([Si](C)(C)[Si](*)(C)C)s3)s2)s1` (repeat unit) displayed a glass transition temperature of 45.00 °C. The compound `*c1ccc(-c2ccc(-c3cnc4cc(-c5ccc6nc(*)cnc6c5)ccc4n3)cc2)cc1` (repeat unit) registered a glass transition temperature of 345.50 °C. With `*c1ccc(-c2ccc(-n3c(=O)c4c(C(F)(F)F)c5c(=O)n(*)c(=O)c5c(C(F)(F)F)c4c3=O)cc2C)c(C)c1` (repeat unit), the glass transition temperature came to 385.00 °C. On to `*c1ccc(-c2ccc(-n3c(=O)c4cc5c(=O)n(*)c(=O)c5c(C(F)(F)F)c4c3=O)cc2C(F)(F)F)c(C(F)(F)F)c1` (repeat unit), for which the glass transition temperature was found to be 373.00 °C.

`*c1ccc(C(c2ccc(-c3cc(-c4ccccc4)c4cc(Oc5ccc6nc(*)cc(-c7ccccc7)c6c5)ccc4n3)cc2)(C(F)(F)F)C(F)(F)F)cc1` (repeat unit) registered a glass transition temperature of 260.00 °C. `*c1ccc(C(c2ccc(N3C(=O)c4cc(-c5ccc(C(C)(C)C)cc5)c(-c5cc6c(cc5-c5ccc(C(C)(C)C)cc5)C(=O)N(*)C6=O)cc4C3=O)cc2)(C(F)(F)F)C(F)(F)F)cc1` (repeat unit): the glass transition temperature was found to be 381.00 °C.

As for `*c1ccc(C2(c3ccc(-c4cc(-c5ccccc5)c5cc(C6(c7ccc8nc(*)cc(-c9ccccc9)c8c7)c7ccccc7-c7ccccc76)ccc5n4)cc3)c3ccccc3C(=O)c3ccccc32)cc1` (repeat unit), the glass transition temperature came to 385.00 °C.

The compound `*c1ccc(C2(c3ccc(-c4cc(-c5ccccc5)c5cc(Oc6ccc7nc(*)cc(-c8ccccc8)c7c6)ccc5n4)cc3)c3ccccc3C(=O)c3ccccc32)cc1` (repeat unit) had a glass transition temperature of 340.00 °C. Turning to `*c1ccc(Oc2c(C)cc(C(c3cc(C)c(Oc4ccc(N5C(=O)c6ccc(-c7ccc8c(c7)C(=O)N(*)C8=O)cc6C5=O)cc4)c(C)c3)c3cccc4ccccc34)cc2C)cc1` (repeat unit), the glass transition temperature was determined as 289.50 °C.

Consider `*c1ccc(Oc2c(C)cc(C(c3cccnc3)c3cc(C)c(Oc4ccc(N5C(=O)CC(Nc6cccc(NC7CC(=O)N(*)C7=O)c6)C5=O)cc4)c(C)c3)cc2C)cc1` (repeat unit), for which the glass transition temperature came to 217.00 °C. Consider `*c1ccc(Oc2ccc(C(c3ccc(Oc4ccc(N5C(=O)c6ccc(Oc7c(C)cc(C(C)(C)c8cc(C)c(Oc9ccc%10c(c9)C(=O)N(*)C%10=O)c(C)c8)cc7C)cc6C5=O)cc4)cc3)(C(F)(F)F)C(F)(F)F)cc2)cc1` (repeat unit), for which the glass transition temperature is 244.00 °C. On to `*c1ccc(Oc2ccc(C3(c4ccc(Oc5ccc(N6C(=O)c7ccc(Oc8c(C)cc(C(C)(C)c9cc(C)c(Oc%10ccc%11c(c%10)C(=O)N(*)C%11=O)c(C)c9)cc8C)cc7C6=O)cc5)cc4)C4CC5CC(C4)CC3C5)cc2)cc1` (repeat unit), for which the glass transition temperature is 282.00 °C.

The compound `*c1ccc2c(c1)C(=O)N(c1ccc(Oc3c(C)cc(C(c4cc(C)c(Oc5ccc(N6C(=O)c7ccc(C(*)(C(F)(F)F)C(F)(F)F)cc7C6=O)cc5)c(C)c4)c4cccc5ccccc45)cc3C)cc1)C2=O` (repeat unit) gave a glass transition temperature of 308.00 °C. Regarding `*c1cccc(N2C(=O)c3cccc(Oc4c(C)cc(-c5cc(C)c(Oc6cccc7c6C(=O)N(*)C7=O)c(C)c5)cc4C)c3C2=O)c1` (repeat unit), the glass transition temperature stood at 311.00 °C. `*c1ccccc1CCc1ccc(N2C(=O)C(=O)N(c3ccc(C)c(N4C(=O)C(=O)N(*)C4=O)c3)C2=O)cc1` (repeat unit) registered a glass transition temperature of 255.00 °C.
